Assay results published in doi:10.1101/2024.08.19.608619, “Discovery of potent SARS-CoV-2 nsp3 macrodomain inhibitors uncovers lack of translation to cellular antiviral response” (bioRxiv, 2024).
Several values for one entry are separate records, joined by “and”; a condition that tells them apart may be missing. Equal entries are not always repeated. Where two headings read alike, the source gives them in different places.

Assays:
dopamine transporter (h) = target: T1, dopamine transporter (h) (Homo sapiens, UniProt Q01959); experiment: In vitro CEREP profiling, dopamine transporter (h) (antagonist radioligand); type: binding; settings: test compound concentration 10 uM
T1 construct: purchased Eurofins Cerep (SafetyScreen44), recognised from the panel format
T1 sequence (Q01959 whole entry): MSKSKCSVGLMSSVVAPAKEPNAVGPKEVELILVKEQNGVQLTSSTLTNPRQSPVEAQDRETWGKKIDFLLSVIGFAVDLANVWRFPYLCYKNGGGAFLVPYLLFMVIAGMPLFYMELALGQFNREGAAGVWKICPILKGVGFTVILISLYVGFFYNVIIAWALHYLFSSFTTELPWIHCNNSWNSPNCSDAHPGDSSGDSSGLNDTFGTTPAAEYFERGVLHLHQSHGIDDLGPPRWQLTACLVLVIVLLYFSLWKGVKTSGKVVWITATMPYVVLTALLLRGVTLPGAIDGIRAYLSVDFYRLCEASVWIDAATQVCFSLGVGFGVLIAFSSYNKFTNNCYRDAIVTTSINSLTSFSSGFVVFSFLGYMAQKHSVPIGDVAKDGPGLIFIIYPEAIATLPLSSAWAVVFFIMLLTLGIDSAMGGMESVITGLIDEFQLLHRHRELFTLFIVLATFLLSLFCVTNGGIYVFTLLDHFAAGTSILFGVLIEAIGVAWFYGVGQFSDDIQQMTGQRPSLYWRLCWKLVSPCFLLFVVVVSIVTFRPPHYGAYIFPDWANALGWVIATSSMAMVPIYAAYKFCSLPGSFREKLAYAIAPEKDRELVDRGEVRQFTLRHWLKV
Description: (§1) Supplement media-1.zip/Safety_Panel_Profile.csv, table | column: perc_inhibition

ETA (h) = target: T2, ETA (h) (Homo sapiens, UniProt P25101); experiment: In vitro CEREP profiling, ETA (h) (agonist radioligand); type: binding; settings: test compound 10 uM
T2 construct: purchased Eurofins Cerep (SafetyScreen44), recognised from the panel format
T2 sequence (P25101 21-427): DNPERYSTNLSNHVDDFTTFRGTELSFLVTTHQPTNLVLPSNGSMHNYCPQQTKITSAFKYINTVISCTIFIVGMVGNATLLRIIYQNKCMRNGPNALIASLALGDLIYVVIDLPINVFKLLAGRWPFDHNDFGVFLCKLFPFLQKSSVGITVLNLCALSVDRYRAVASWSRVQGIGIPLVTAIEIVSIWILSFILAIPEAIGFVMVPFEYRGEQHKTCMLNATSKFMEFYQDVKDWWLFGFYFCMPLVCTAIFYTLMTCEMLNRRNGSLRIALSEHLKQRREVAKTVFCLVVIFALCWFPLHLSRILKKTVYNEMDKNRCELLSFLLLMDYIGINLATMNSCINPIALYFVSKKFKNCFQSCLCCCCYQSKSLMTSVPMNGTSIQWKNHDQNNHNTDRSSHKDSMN
Description: as §1

CB2 (h) = target: T3, CB2 (h) (Homo sapiens, UniProt P34972); experiment: In vitro CEREP profiling, CB2 (h) (agonist radioligand); type: binding; settings: test compound 10 uM
T3 construct: purchased Eurofins Cerep (SafetyScreen44), recognised from the panel format
T3 sequence (P34972 whole entry): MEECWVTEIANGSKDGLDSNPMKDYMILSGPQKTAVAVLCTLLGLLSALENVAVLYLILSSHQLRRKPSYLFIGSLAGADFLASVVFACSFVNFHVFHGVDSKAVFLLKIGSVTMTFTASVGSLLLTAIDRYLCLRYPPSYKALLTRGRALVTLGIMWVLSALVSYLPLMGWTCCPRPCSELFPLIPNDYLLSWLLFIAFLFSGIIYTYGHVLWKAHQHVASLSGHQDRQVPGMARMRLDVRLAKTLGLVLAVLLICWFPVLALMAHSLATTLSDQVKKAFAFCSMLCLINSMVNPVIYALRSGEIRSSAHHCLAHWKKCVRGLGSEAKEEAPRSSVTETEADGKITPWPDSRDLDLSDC
Description: as §1

BZD (central) = experiment: In vitro CEREP profiling, BZD (central) (agonist radioligand); type: binding; settings: test compound 10 uM
Description: as §1

Na+ channel (site 2) = experiment: In vitro CEREP profiling, Na+ channel (site 2) (antagonist radioligand); type: binding; settings: test compound concentration 10 uM
Description: as §1

AR(h) = experiment: In vitro CEREP profiling, AR(h) (agonist radioligand); type: binding, human; settings: test compound concentration 10 uM
Description: as §1

Vero E6/TMPRSS2 = Vero E6/TMPRSS2 cytotoxicity with P-gp inhibitor; type: cell-based; settings: for perc_max_measured: highest measured response of the dose series; for perc_min_measured: lowest measured response of the dose series
Description: Supplement media-1.zip/Cytotoxicity.csv, table | column: cc10; cc50; perc_min_measured; perc_max_measured

5-HT2A (h) = target: T4, 5-HT2A (h) (Homo sapiens, UniProt P28223); experiment: In vitro CEREP profiling, 5-HT2A (h) (agonist radioligand); type: binding; settings: test compound concentration 10 uM
T4 construct: purchased Eurofins Cerep (SafetyScreen44), recognised from the panel format
T4 sequence (P28223 whole entry): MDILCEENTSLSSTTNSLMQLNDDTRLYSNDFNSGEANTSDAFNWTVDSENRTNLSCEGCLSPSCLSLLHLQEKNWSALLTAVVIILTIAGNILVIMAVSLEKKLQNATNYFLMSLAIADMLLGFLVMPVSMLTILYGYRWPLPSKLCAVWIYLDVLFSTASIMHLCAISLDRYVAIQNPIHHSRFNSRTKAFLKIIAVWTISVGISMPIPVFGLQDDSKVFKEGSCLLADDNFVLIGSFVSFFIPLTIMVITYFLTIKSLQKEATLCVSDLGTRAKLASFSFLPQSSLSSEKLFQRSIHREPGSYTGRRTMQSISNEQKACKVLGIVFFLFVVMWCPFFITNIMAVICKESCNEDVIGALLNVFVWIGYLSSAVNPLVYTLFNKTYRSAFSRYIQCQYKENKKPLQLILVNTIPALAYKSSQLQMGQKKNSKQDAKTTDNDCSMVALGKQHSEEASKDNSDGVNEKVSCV
Description: as §1

MAO-A = target: T5, MAO-A (Rattus norvegicus, UniProt P21396); experiment: In vitro CEREP profiling, MAO-A (antagonist radioligand); type: binding; settings: test compound concentration 10 uM
T5 construct: purchased Eurofins Cerep (SafetyScreen44), recognised from the panel format
T5 sequence (P21396 1-526): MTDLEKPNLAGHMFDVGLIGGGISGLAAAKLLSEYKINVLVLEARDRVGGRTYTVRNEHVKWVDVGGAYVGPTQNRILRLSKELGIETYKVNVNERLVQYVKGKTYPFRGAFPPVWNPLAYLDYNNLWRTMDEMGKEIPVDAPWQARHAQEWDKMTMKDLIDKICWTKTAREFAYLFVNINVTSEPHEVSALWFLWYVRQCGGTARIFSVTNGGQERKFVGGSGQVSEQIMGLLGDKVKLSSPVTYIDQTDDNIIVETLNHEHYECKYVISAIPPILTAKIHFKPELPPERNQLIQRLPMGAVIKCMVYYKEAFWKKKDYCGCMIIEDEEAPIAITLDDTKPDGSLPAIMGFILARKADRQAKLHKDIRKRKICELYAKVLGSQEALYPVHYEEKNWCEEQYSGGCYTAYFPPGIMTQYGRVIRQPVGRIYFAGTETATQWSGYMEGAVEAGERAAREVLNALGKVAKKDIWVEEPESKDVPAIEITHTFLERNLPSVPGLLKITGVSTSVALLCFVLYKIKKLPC
Description: as §1

delta (DOP) (h) = target: T6, delta (DOP) (h) (Homo sapiens, UniProt P41143); experiment: In vitro CEREP profiling, delta (DOP) (h) (agonist radioligand); type: binding; settings: test compound concentration 10 uM
T6 construct: purchased Eurofins Cerep (SafetyScreen44), recognised from the panel format
T6 sequence (P41143 whole entry): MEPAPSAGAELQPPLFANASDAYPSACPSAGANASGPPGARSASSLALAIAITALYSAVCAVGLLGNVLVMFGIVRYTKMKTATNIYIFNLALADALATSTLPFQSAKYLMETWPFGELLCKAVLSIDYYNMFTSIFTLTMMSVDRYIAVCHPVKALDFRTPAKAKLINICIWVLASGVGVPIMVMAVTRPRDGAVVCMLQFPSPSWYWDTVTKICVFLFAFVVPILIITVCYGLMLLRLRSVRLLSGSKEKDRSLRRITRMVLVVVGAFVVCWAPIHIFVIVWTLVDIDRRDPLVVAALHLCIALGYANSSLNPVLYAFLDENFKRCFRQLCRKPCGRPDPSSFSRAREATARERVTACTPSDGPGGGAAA
Description: as §1

KOR receptor = target: T7, KOR receptor (Homo sapiens, UniProt P41145); experiment: Eurofins CEREP panel, KOR; type: binding; settings: kappa (h) (KOP) (agonist radioligand), test compound concentration 10 uM
T7 construct: purchased Eurofins Cerep (SafetyScreen44), recognised from the panel format
T7 sequence (P41145 whole entry): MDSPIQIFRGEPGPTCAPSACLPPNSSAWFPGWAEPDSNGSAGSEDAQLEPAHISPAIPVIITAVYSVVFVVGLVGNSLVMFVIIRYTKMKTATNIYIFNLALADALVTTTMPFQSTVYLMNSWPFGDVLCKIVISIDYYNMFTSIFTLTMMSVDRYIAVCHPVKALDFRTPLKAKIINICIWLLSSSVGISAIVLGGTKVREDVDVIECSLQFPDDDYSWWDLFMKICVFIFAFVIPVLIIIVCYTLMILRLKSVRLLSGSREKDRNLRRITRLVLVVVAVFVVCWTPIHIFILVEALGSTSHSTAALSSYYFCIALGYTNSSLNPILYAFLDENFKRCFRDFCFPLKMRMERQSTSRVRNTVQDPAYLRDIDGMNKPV

[1] = Hepatic microsomal stability, MLM; type: in vitro ADME
MERS-CoV = experiment: microbe, parasite or virus in culture; type: cell-based; settings: for perc_max_measured: maximum measured response of dose series; for perc_min_measured: minimum measured response of dose series
acetylcholinesterase (h) = target: T8, acetylcholinesterase (h) (Homo sapiens, UniProt P22303); experiment: In vitro CEREP profiling, acetylcholinesterase (h); type: biochemical; settings: test compound concentration 10 uM, Enzyme and Cell-based assays
T8 construct: purchased Eurofins Cerep (SafetyScreen44), recognised from the panel format
T8 sequence (P22303 32-614): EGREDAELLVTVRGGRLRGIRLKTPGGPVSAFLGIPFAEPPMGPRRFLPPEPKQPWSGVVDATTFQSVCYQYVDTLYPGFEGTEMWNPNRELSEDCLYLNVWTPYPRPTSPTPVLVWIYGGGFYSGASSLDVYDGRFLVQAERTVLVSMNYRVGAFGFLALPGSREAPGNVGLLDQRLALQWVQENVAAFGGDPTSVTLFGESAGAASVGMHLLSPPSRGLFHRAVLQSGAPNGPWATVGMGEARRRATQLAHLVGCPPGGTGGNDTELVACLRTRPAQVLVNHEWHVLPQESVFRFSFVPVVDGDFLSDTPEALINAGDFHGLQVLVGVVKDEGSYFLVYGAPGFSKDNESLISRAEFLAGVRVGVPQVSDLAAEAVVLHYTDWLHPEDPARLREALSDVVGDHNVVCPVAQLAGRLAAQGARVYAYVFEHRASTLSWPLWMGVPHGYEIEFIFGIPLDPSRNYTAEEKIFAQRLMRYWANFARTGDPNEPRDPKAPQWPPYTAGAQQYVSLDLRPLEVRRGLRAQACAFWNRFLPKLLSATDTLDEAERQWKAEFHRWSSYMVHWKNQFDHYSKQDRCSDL
Description: as §1

Lck kinase (h) = target: T9, Lck kinase (h) (Homo sapiens, UniProt P06239); experiment: In vitro CEREP profiling, Lck kinase (h); type: biochemical; settings: test compound concentration 10 uM, Enzyme and Cell-based assays
T9 construct: purchased Eurofins Cerep (SafetyScreen44), recognised from the panel format
T9 sequence (P06239 whole entry): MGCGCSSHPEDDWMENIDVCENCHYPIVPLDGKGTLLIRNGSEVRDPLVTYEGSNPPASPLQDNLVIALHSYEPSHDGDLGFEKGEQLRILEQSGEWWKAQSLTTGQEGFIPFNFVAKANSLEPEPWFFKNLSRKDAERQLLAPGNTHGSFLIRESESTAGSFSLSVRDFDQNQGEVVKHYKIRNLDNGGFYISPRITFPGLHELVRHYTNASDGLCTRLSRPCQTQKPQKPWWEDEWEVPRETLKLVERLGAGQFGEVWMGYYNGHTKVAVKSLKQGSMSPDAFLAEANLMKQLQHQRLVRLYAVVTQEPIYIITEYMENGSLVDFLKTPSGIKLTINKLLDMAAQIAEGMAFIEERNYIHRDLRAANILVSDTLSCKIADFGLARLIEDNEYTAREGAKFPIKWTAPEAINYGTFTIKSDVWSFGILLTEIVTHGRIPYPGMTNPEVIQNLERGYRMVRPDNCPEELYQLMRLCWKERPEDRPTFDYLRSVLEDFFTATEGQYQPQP
Description: as §1

CCK1 (CCKA) (h) = target: T10, CCK1 (CCKA) (h) (Homo sapiens, UniProt P32238); experiment: In vitro CEREP profiling, CCK1 (CCKA) (h) (agonist radioligand); type: binding; settings: test compound 10 uM
T10 construct: purchased Eurofins Cerep (SafetyScreen44), recognised from the panel format
T10 sequence (P32238 1-428): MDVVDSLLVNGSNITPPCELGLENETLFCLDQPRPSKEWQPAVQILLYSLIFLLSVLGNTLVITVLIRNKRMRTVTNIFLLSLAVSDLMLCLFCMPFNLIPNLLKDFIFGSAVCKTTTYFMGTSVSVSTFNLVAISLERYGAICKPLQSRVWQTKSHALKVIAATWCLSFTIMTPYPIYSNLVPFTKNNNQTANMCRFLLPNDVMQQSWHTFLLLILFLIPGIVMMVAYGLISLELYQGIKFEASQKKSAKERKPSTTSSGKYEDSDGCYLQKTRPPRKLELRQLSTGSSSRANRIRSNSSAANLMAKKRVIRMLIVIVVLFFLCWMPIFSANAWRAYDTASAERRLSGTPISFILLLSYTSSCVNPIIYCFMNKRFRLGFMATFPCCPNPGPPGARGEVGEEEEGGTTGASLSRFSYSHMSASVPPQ
Description: as §1

[2] = In vitro mouse liver microsomal stability
[3] = In vitro mouse liver microsomal stability, no cofactor
[4] = Vero E6/TMPRSS2 MERS-CoV antiviral effect with P-gp inhibitor
[5] = Vero E6/TMPRSS2 MERS-CoV antiviral effect with P-gp inhibitor, read-out: ec90
[6] = read-out: perc_inhibition, % inhibition of the binding of a ligand specific for each target
[7] = read-out: perc_inhibition (% inhibition of the binding of a ligand specific for each target)
[8] = Middle East respiratory syndrome-related coronavirus, VeroE6/TMPRSS2
[9] = In vitro mouse liver microsomal stability; no cofactor

| SMILES | perc_inhibition (% inhibition of the binding of a ligand specific for each target) (dopamine transporter (h)) [%] | perc_inhibition (% inhibition of the binding of a ligand specific for each target) (ETA (h)) [%] | perc_inhibition (% inhibition of the binding of a ligand specific for each target) (CB2 (h)) [%] | perc_inhibition (% inhibition of the binding of a ligand specific for each target) (BZD (central)) [%] | perc_inhibition (% inhibition of the binding of a ligand specific for each target) (Na+ channel (site 2)) [%] | perc_inhibition (% inhibition of the binding of a ligand specific for each target) (AR(h)) [%] | cc10 (Vero E6/TMPRSS2) [µM] | perc_max_measured (Vero E6/TMPRSS2) | perc_min_measured (Vero E6/TMPRSS2) | perc_inhibition (% inhibition of the binding of a ligand specific for each target) (5-HT2A (h)) [%] | perc_inhibition (% inhibition of the binding of a ligand specific for each target) (MAO-A) [%] | perc_inhibition (% inhibition of the binding of a ligand specific for each target) (delta (DOP) (h)) [%] | perc_inhibition (% inhibition of the binding of a ligand specific for each target) (KOR receptor) [%] | clint [1, 2] | perc_remaining [1, 2] | t_half [1, 2] | perc_remaining_no_cofactor [1, 3] [%] | perc_max_measured (MERS-CoV; [4]) | perc_inhibition: % inhibition of control enzyme activity, acetylcholinesterase (h) (acetylcholinesterase (h)) [%] | perc_inhibition: % inhibition of control enzyme activity, Lck kinase (h) (Lck kinase (h)) [%] | further results |
| --- | --- | --- | --- | --- | --- | --- | --- | --- | --- | --- | --- | --- | --- | --- | --- | --- | --- | --- | --- | --- | --- |
| CC(C)[C@H](Nc1ncnc2[nH]ccc12)c1ccc2c(c1)S(=O)(=O)CCC2 [ASAP-0008674] | 27 | -1 | -13 | 4 | -5 | 0 | > 5.0 | 135.379% and 119.601% | 95.549% and 105.983% | 12 | 7 | 30 | 84 | 207.0 µL/min/mg | 3.0% | 8.1 min | 104.0 | 131.878% and 83.309% and 125.339% | 12 | 10 | CC50 (Vero E6/TMPRSS2): > 5 µM; EC90 (MERS-CoV; [5]): > 5 µM; perc_inhibition (% inhibition of the binding of a ligand specific for each target) (CCK1 (CCKA) (h)): -2% |
| Cc1nn(C)cc1-c1cc2c(NC(c3ccc4c(c3)S(=O)(=O)CCC4)C(C)C)ncnc2[nH]1 (stereo not shown) [ASAP-0011446] | – | – | – | 29 | -1 | 6 | > 5.0 | 106.351% | 79.435% | – | – | – | – | – | 4.0% | 8.3 min | 104.0 | 103.374% and 130.763% | – | – | inhibition at 10 µM (dopamine transporter (h); [6]): 13%; inhibition at 10 µM (ETA (h); [7]): -4%; inhibition at 10 µM (CB2 (h); [7]): -8%; inhibition at 10 µM (5-HT2A (h); [6]): 51%; inhibition at 10 µM (MAO-A; [7]): 5%; inhibition at 10 µM (delta (DOP) (h); [7]): 16%; inhibition at 10 µM (KOR receptor; [7]): 45%; microsomal CLint ([1]; liver microsomes; In vitro mouse liver microsomal stability): 202 µL/min/mg; EC50 (MERS-CoV; [8]): > 5 µM; EC90 (MERS-CoV; [8]): > 5 µM; perc_min_measured (MERS-CoV; [4]): 64.505% and 89.964%; inhibition at 10 µM (acetylcholinesterase (h); read-out: perc_inhibition: % inhibition of control enzyme activity, acetylcholinesterase (h)): 13%; inhibition at 10 µM (Lck kinase (h); read-out: perc_inhibition: % inhibition of control enzyme activity, Lck kinase (h)): 33%; inhibition at 10 µM (CCK1 (CCKA) (h); [7]): -8% |
| CC(C)[C@@H](Nc1ncnc2[nH]c(-c3cnn(C)c3C#N)cc12)c1ccc2c(n1)OCCO2 [ASAP-0008418] | – | – | – | – | – | – | – | – | – | – | – | – | – | 139.0 µL/min/mg and 169.0 µL/min/mg | 10.0% and 6.0% | 12.0 min and 9.9 min | 101.0 | – | – | – | perc_remaining_no_cofactor [1, 9]: 110.0% |
| CC(C)C(Nc1ncnc2[nH]ccc12)c1ccc2c(c1)S(=O)(=O)CCC2 (stereo not shown) [ASAP-0008327] | – | – | – | – | – | – | – | – | – | – | – | – | – | – | 10.0% | 12.1 min | – | – | – | – | perc_remaining_no_cofactor [1, 9]: 103.0%; microsomal CLint ([1]; mouse, liver microsomes, In vitro mouse liver microsomal stability): 138 µL/min/mg |
| CC(C)[C@H](Nc1ncnc2[nH]c(-c3cnn(C)c3C#N)cc12)c1ccc2c(n1)OCCO2 [ASAP-0010715] | 29 | 42 | 44 | -2 | 10 | -3 | > 5.0 | 109.412% | 72.414% | 15 | 4 | 58 | 31 | – | – | – | – | 122.135% and 106.633% | 15 | 20 | CC50 (Vero E6/TMPRSS2): > 5 µM; perc_min_measured (MERS-CoV; [4]): 93.468% and 72.24%; EC50 (MERS-CoV; Vero E6/TMPRSS2 MERS-CoV antiviral effect with P-gp inhibitor, read-out: ec50): > 5 µM; EC90 (MERS-CoV; [5]): > 5 µM; perc_inhibition (% inhibition of the binding of a ligand specific for each target) (CCK1 (CCKA) (h)): 1% |
| COc1ccc([C@@H](Cc2nnn[nH]2)NC(=O)c2ncnc3[nH]ccc23)cc1 [ASAP-0008340] | – | – | – | – | – | – | – | – | – | – | – | – | – | – | 96.0% | 4400.5 min | 93.0 | – | – | – | – |
| Cn1ncc(-c2cc3c(N[C@@H](c4ccc5c(n4)OCCO5)C(C)(C)C)ncnc3[nH]2)c1C#N [ASAP-0011221] | 50 | 9 | 31 | -5 | 34 | 5 | – | – | – | -2 | 10 | 15 | 33 | 226.0 µL/min/mg | 2.0% | 7.4 min | 94.0 | – | 14 | 47 | perc_inhibition (% inhibition of the binding of a ligand specific for each target) (CCK1 (CCKA) (h)): 4% |
